Data from the supplement of paper PMC10307832.

Columns and labels:
Experiment in all cases: relative viability (nuclei count vs DMSO), 5 days (fraction); higher = more cells survive
CUDC-101 + AZD7762 = compound: C#Cc1cccc(Nc2ncnc3cc(OC)c(OCCCCCCC(=O)NO)cc23)c1 [CUDC-101] + NC(=O)Nc1cc(-c2cccc(F)c2)sc1C(=O)N[C@H]1CCCNC1 [AZD7762] (partner 0.2 µM)
How it was run: (§1)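 Nuclei were stained with Hoechst during a one-step fixation (final 0.05% Triton X-100, 1% formaldehyde, 1 ug/ml Hoechst) carried out 5 days after dosing, then counted on 4× images. The cells, lung cancer lines in 1536-well plates, had been dosed by pin tool the day after seeding with one drug alone or a fixed anchor-drug dose plus five library-drug doses (not always all listed) in √10 steps. Relative viability is the nuclei count in treated wells divided by that in vehicle wells, and each value is the median of duplicate plates.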

NVP-TAE684 + Decitabine = compound: COc1cc(N2CCC(N3CCN(C)CC3)CC2)ccc1Nc1ncc(Cl)c(Nc2ccccc2S(=O)(=O)C(C)C)n1 [NVP-TAE684] + Nc1ncn([C@H]2C[C@H](O)[C@@H](CO)O2)c(=O)n1 [Decitabine] (partner 2 µM)
How it was run: as §1

[1] = compound: C1=CC=C2C(=C1)N=C(S2)C(C#N)C3=NC(=NC=C3)NCCC4=CN=CC=C4 + CC(C)C[C@H](NC(=O)[C@H](Cc1ccccc1)NC(=O)c1cnccn1)B(O)O [Bortezomib] (partner 0.002 µM)
How it was run: as §1

Vandetanib + Pemetrexed = compound: COc1cc2/c(=N/c3ccc(Br)cc3F)nc[nH]c2cc1OCC1CCN(C)CC1 [Vandetanib] + Nc1nc2[nH]cc(CCc3ccc(C(=O)N[C@@H](CCC(=O)O)C(=O)O)cc3)c2c(=O)[nH]1 [Pemetrexed] (partner 0.2 µM)
How it was run: as §1

Cell Line	relative viability (CUDC-101 + AZD7762; first compound 0.01 µM)	relative viability (CUDC-101 + AZD7762; first compound 0.03162 µM)	relative viability (CUDC-101 + AZD7762; first compound 0.1 µM)	relative viability (CUDC-101 + AZD7762; first compound 0.3162 µM)	relative viability (CUDC-101 + AZD7762; first compound 1 µM)	relative viability (NVP-TAE684 + Decitabine; first compound 0.2 µM)	relative viability (NVP-TAE684 + Decitabine; first compound 0.6325 µM)	relative viability (NVP-TAE684 + Decitabine; first compound 2 µM)	relative viability ([1]; first compound 0.01581 µM)	relative viability ([1]; first compound 0.05 µM)	relative viability ([1]; first compound 0.1581 µM)	relative viability ([1]; first compound 0.5 µM)	relative viability (Vandetanib + Pemetrexed; first compound 0.02 µM)	relative viability (Vandetanib + Pemetrexed; first compound 0.06325 µM)	relative viability (Vandetanib + Pemetrexed; first compound 0.2 µM)	relative viability (Vandetanib + Pemetrexed; first compound 0.6325 µM)	relative viability (Vandetanib + Pemetrexed; first compound 2 µM)	relative viability ([1]; first compound 0.005 µM)
NCI-H23	0.293	0.161	0.282	0.276	0.226	0.31	0.322	0.241	0.917	1.01	1.37	0.92	0.605	0.655	0.634	0.631	0.666	–
LC-2-ad	0.904	0.858	0.824	0.778	0.581	0.754	0.78	0.606	1.08	1.01	1.08	0.944	0.257	0.278	0.273	0.259	0.264	1
LCLC-97TM1	0.264	0.211	0.343	0.305	0.248	0.208	0.184	0.153	0.356	0.627	0.754	0.291	0.18	0.184	0.166	0.181	0.181	–
HOP-62	0.61	0.448	0.447	0.424	0.294	0.242	0.236	0.266	0.576	0.907	1.09	0.738	0.325	0.358	0.438	0.299	0.291	0.798
NCI-H2085	0.956	1.01	1.06	0.922	0.877	0.533	0.458	0.458	1.05	0.781	1.24	0.94	1.02	0.786	0.776	0.765	0.767	0.861
NCI-H2087	1.32	1.46	1.28	1.24	0.815	0.305	0.261	0.192	0.809	0.786	0.834	0.512	0.661	0.64	0.619	0.641	0.623	0.567
A-427	0.675	0.701	0.625	0.483	0.258	0.58	0.53	0.44	1.07	0.968	1.02	0.974	0.907	1	1.06	0.986	0.927	0.934
NCI-H1975	0.749	0.743	0.665	0.761	0.722	0.401	0.389	0.36	0.41	0.367	0.414	0.307	0.296	0.275	0.268	0.285	0.306	0.377
NCI-H1993	0.811	0.87	0.855	0.704	0.428	0.618	0.629	0.501	1.07	0.886	1.1	1.06	0.629	0.55	0.707	0.515	0.598	1.02
201T	0.617	0.646	0.613	0.614	0.39	–	0.867	0.684	1.09	1.09	1.09	1.11	0.345	0.34	0.328	0.338	0.306	1.1
NCI-H647	0.555	0.376	0.567	0.403	0.176	0.388	0.386	0.261	1.04	0.869	1.05	0.989	0.185	0.152	0.182	0.153	0.175	–
HCC-78	0.66	0.531	0.603	0.355	0.323	0.636	0.634	0.49	0.575	0.49	0.465	0.589	0.88	0.889	0.893	0.873	0.901	0.547
BEN	0.68	0.735	0.703	0.684	0.645	–	0.622	0.643	0.818	0.869	1.02	0.893	0.725	0.67	0.635	0.714	0.516	0.699
NCI-H650	1.25	0.835	1.03	0.968	0.848	0.306	0.329	0.276	0.528	0.748	1.22	0.778	0.844	0.801	0.869	0.964	0.873	0.482
NCI-H441	1.36	1.08	1.34	1.37	1.07	0.235	0.279	0.232	0.414	0.679	0.912	0.743	0.252	0.269	0.27	0.263	0.263	–
NCI-H1915	0.717	0.631	0.61	0.548	0.516	0.284	0.263	0.257	1.05	0.964	1.19	0.647	0.496	0.509	0.523	0.505	0.477	0.552
HCC-366	0.254	0.174	0.285	0.289	0.211	0.37	0.401	0.315	1.1	1.07	1.3	0.927	0.128	0.149	0.155	0.17	0.176	0.85
NCI-H1792	0.789	0.513	0.687	0.653	0.423	0.359	0.558	0.309	1.04	0.941	1.11	0.534	0.834	0.733	0.733	0.822	0.771	–
